IC50 data for 23 molecules are collected here from ChEMBL document CHEMBL5042500 (J Med Chem, 2022).

pIC50: −log10 of the molar value.

Experiment [1] concerns the target T1, Serine/threonine-protein kinase Sgk1 (Homo sapiens, UniProt O00141).
T1 sequence (O00141 whole entry): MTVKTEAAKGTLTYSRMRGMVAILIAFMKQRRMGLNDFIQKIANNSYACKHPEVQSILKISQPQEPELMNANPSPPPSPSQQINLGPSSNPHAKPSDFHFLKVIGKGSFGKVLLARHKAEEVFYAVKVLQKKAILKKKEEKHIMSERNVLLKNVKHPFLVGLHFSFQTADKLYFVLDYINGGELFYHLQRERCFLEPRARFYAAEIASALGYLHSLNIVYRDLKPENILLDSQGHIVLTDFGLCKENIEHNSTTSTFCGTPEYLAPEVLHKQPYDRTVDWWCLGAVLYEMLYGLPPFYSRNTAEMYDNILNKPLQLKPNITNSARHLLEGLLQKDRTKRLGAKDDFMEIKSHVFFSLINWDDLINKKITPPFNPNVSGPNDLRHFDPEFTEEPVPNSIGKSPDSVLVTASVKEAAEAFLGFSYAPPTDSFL
The experiment in a line: Inhibition of recombinant human SGK1 expressed in baculovirus expression system using 5-carboxyfluorescein -RPRAATF-NH2 as substrate preincubated for 30 mins followed by substrate addition in presence of 10 uM ATP and measured after 60 mins by microfluidics assay.

Experiment [2] has as its target T1, Serine/threonine-protein kinase Sgk1. The experiment in a line: Inhibition of recombinant human SGK1 expressed in baculovirus expression system using 5-carboxyfluorescein -RPRAATF-NH2 as substrate preincubated for 30 mins followed by substrate addition in presence of 500 uM ATP and measured after 60 mins by microfluidics assay.

With `Cc1n[nH]c2nc(-c3ccc(NS(=O)(=O)c4cc(Cl)ccc4F)cc3)nc(OC3CCC(O)CC3)c12` (stereo not drawn), the pIC50 in experiment [1] and in experiment [2] was greater than 8.70 each time. For `O=C(N[C@@H]1CCNC1)c1cc(-c2ccc(NS(=O)(=O)c3cccc(Cl)c3Cl)cc2)nc2[nH]ncc12`, the pIC50 in experiment [1] and in experiment [2] was greater than 9.00 each time. For `O=C(NCc1cocn1)c1cc(-c2ccc(NS(=O)(=O)c3cccc(Cl)c3Cl)cc2)nc2[nH]ncc12`, the pIC50 (usually −log10 of the IC50, conventionally taken in molar units) in experiment [1] was greater than 9.00; in experiment [2], 6.49.

`Cc1n[nH]c2nc(-c3ccc(NS(=O)(=O)c4cc(Cl)ccc4F)cc3)nc(OC3CCN(CC(F)(F)F)CC3)c12`: the pIC50 was 7.26 in experiment [1] and 6.58 in experiment [2]. Take `O=C(NCc1nncs1)c1cc(-c2ccc(NS(=O)(=O)c3cccc(Cl)c3Cl)cc2)nc2[nH]ncc12`: the pIC50 in experiment [1] is 6.96; in experiment [2], 5.90. Take `Cc1n[nH]c2nc(-c3ccc(NS(=O)(=O)c4cc(Cl)ccc4F)cc3)nc(OC3CCOCC3)c12`: the pIC50 in experiment [1] was 8.30; in experiment [2] it was 7.85. `O=C(c1cc(-c2ccc(NS(=O)(=O)c3cccc(Cl)c3Cl)cc2)nc2[nH]ncc12)N1CCNCC1`: the pIC50 was 8.70 in experiment [1] and 5.89 in experiment [2].

Consider `Cc1n[nH]c2nc(-c3ccc(NS(=O)(=O)c4cc(Cl)ccc4F)cc3)nc(Oc3ccc(N)nc3)c12`, for which the pIC50 in experiment [1] is 8.40; in experiment [2], 7.96.

As to `CN1CCC(CNC(=O)c2cc(-c3ccc(NS(=O)(=O)c4cccc(Cl)c4Cl)cc3)nc3[nH]ncc23)C1` (racemic), the pIC50 in experiment [1] was 7.85; in experiment [2], 7.35. As for `Cc1n[nH]c2nc(-c3ccc(NS(=O)(=O)c4cc(Cl)ccc4F)cc3)nc(OCC3CNCCO3)c12` (stereo not drawn), the pIC50 in experiment [1] and in experiment [2] was 8.70 in each case. `O=C(NCc1nn[nH]n1)c1cc(-c2ccc(NS(=O)(=O)c3cccc(Cl)c3Cl)cc2)nc2[nH]ncc12`: the values for the pIC50 in experiment [1] and in experiment [2] were 8.40 and 6.09, respectively. Consider `Cc1n[nH]c2nc(-c3ccc(NS(=O)(=O)c4cc(Cl)ccc4F)cc3)nc(OC3CCNCC3)c12`, for which the pIC50 in experiment [1] and in experiment [2] was 9.00 in each case. Regarding `Cc1n[nH]c2nc(-c3ccc(NS(=O)(=O)c4cc(Cl)ccc4F)cc3)nc(OCC3(CN)COC3)c12`, the pIC50 in experiment [1] and in experiment [2] was 9.00 throughout. For `CN(C)CCCNC(=O)c1cc(-c2ccc(NS(=O)(=O)c3cccc(Cl)c3Cl)cc2)nc2[nH]ncc12`, in experiment [2], the pIC50 was 6.20. With `O=C(NCc1cc[nH]n1)c1cc(-c2ccc(NS(=O)(=O)c3cccc(Cl)c3Cl)cc2)nc2[nH]ncc12`, the pIC50 in experiment [2] is 6.02. In the case of `Cc1n[nH]c2nc(-c3ccc(NS(=O)(=O)c4cc(Cl)ccc4F)cc3)nc(OC3CCC(=O)CC3)c12`, the pIC50 in experiment [1] is 8.30; in experiment [2], 7.74. For the molecule `O=C(NC1CCN(CC2CC2)C1)c1cc(-c2ccc(NS(=O)(=O)c3cccc(Cl)c3Cl)cc2)nc2[nH]ncc12` (racemic), the pIC50 in experiment [1] was 9.00; in experiment [2], 7.46. Regarding `CCN1CCC(Oc2nc(-c3ccc(NS(=O)(=O)c4cc(Cl)ccc4F)cc3)nc3[nH]nc(C)c23)CC1`, the pIC50 is 8.70 in experiment [1] and 8.40 in experiment [2].

As to `NCCNC(=O)c1cc(-c2ccc(NS(=O)(=O)c3cccc(Cl)c3Cl)cc2)nc2[nH]ncc12`, the pIC50 in experiment [1] and in experiment [2] was greater than 9.00 in each case.

With `O=C(NC1CCN(C2CC2)C1)c1cc(-c2ccc(NS(=O)(=O)c3cccc(Cl)c3Cl)cc2)nc2[nH]ncc12` (racemic), the pIC50 was 8.22 in experiment [1] and 6.21 in experiment [2].

For `Cc1n[nH]c2nc(-c3ccc(NS(=O)(=O)c4cc(Cl)ccc4F)cc3)nc(Oc3ccc(O)nc3)c12`, the pIC50 in experiment [1] was 8.70; in experiment [2], 8.40. Consider `O=C(NCc1ncn[nH]1)c1cc(-c2ccc(NS(=O)(=O)c3cccc(Cl)c3Cl)cc2)nc2[nH]ncc12`, for which the pIC50 in experiment [1] is 9.00; in experiment [2], 6.97.

Turning to `CCN1CCCC(Oc2nc(-c3ccc(NS(=O)(=O)c4cc(Cl)ccc4F)cc3)nc3[nH]nc(C)c23)C1` (stereo not drawn), in experiment [1], the negative-log IC50 (pIC50) was 8.22.
